The text below walks through data of patent publication US7094911B2, “Biphenyl and biphenyl-analogous compounds as integrin antagonists” (Bayer Aktiengesellschaft, priority 1998, dated 2006).

In general, IC50 refers to the midpoint of a concentration-inhibition curve. By melting point is commonly meant the temperature, or range, at which the solid turns liquid.

The subject of the first data set is smooth muscle cells. Nature of the data set: Smooth muscle cell (SMC) migration test. It counts as cell-based, humans or rats. The conditions noted are these: horizontal migration on vitronectin-coated plates, 24 hours; human or rat cells not specified. The method, then: b) Smooth Muscle Cell (SMC) Migration Test
Smooth muscle cells from humans or rats were used. The migration of the cells was determined in a horizontal measuring arrangement (Falcon).
The horizontal migration was determined in 6-well plates coated with vitronectin (1 μg/cm^2). The cells were suspended in a medium (DMEM:F12/0, 12% BSA-rat smooth muscle cells or MCDB 131 with 0.2% BSA-human smooth muscle cells), inoculated and allowed to grow to confluence. Half of the smooth muscle cell lawn was then scraped off, and the cells were treated with different concentrations of the test compounds. The mixtures were incubated for 24 hours at 37° C. in the presence of 5% CO2 After the incubation, the smooth muscle cell migration was determined by measurement of the migration distance and the cell density of the migrated cells.
As for `CC1(C)[C@@H]2CC[C@@]1(CS(=O)(=O)N[C@@H](Cc1ccc(-c3cccc(NC(=O)Nc4cccnc4)c3)cc1)C(=O)O)C(=O)C2` [Example 1.73, (2S)-3-[3′-(3-Pyridin-3-yl-ureido)-biphenyl-4-yl]-2-[(S)-campher-10-yl-sulfonylamino]-propanoic acid], the 50% inhibitory concentration (IC50) was 3 to 40 nM.

For the next data set, the target named is T1, ανβ3 receptor (Homo sapiens, UniProt P05106+P06756).
T1 construct: ανβ3 from human A375 cells were purified according to a procedure described by Wong et al; endogenous in cells; host or cells: human A375 cells (receptor purified from the cells, detergent-solubilised)
T1 sequence (P06756 31-889 limits assumed): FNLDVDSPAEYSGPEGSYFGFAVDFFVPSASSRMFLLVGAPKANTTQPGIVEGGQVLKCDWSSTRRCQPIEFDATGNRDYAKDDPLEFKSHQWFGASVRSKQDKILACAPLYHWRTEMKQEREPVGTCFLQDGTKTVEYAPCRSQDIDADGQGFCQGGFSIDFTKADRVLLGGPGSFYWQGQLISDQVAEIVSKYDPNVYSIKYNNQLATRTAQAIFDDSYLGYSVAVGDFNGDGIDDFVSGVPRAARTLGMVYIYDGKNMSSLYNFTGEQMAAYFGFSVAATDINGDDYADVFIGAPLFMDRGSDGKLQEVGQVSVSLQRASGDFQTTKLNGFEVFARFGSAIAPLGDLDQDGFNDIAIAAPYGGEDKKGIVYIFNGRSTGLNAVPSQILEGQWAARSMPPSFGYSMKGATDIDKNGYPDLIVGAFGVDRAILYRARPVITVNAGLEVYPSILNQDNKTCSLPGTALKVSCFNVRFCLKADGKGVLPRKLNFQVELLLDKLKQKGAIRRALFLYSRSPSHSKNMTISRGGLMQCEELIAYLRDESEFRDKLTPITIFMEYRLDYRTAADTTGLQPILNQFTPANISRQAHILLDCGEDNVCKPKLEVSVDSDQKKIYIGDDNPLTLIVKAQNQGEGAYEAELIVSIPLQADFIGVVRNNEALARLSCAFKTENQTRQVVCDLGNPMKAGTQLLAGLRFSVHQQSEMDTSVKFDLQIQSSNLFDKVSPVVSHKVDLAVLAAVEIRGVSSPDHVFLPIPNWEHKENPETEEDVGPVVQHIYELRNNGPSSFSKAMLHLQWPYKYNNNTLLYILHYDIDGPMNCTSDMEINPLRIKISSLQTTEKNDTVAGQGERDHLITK
T1 sequence (P06756 891-1048 partner limits assumed): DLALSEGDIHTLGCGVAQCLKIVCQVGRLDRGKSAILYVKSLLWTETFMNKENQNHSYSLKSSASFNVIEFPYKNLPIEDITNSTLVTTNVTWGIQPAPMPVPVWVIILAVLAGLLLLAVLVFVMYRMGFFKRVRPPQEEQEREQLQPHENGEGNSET
T1 sequence (P05106 27-788): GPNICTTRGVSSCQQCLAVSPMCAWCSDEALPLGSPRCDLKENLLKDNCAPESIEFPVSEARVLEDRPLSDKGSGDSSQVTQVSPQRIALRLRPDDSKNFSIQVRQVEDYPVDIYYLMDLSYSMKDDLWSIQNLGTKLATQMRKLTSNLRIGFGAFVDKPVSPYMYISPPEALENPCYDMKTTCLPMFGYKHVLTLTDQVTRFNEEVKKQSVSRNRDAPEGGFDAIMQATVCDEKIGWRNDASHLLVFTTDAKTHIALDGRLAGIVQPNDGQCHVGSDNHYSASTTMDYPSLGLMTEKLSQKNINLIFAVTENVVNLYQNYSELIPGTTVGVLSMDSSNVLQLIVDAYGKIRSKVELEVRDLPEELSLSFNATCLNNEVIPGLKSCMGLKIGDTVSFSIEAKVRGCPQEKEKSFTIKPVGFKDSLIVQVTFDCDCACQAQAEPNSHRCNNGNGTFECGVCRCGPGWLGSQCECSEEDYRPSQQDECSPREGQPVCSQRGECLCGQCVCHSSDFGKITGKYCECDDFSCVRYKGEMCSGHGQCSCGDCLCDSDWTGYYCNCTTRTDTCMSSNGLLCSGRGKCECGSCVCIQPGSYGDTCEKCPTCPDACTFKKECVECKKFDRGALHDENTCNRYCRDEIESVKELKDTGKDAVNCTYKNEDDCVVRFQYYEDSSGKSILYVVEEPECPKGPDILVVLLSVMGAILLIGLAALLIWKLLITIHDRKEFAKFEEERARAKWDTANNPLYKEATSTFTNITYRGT
The data set is described as follows: Binding to the αvβ3 receptor (echistatin SPA). The conditions noted are these: ανβ3 purified from human A375 cells, labelled echistatin, WGA SPA beads; read-out: avb3 IC50. The method, then: Biological Investigations a) Binding to the ανβ3 Receptor
10 μl ανβ3 (5 ng) in TBS pH 7.6, 2 mM CaCl2, 1 mM MgCl2, 1% n/octylglucopyranoside; 10 μl of the substance to be tested in TBS pH 7.6, 0.1% dimethylsulfoxide (DMSO), and 45 μl TBS pH 7.6, 2 mM CaCl2, 1 MM MgCl2, 1 mM MnCl2 were each incubated for 1 h at room temperature.
For `CC1(C)[C@@H]2CC[C@@]1(CS(=O)(=O)N[C@@H](Cc1ccc(-c3cccc(NC(=O)Nc4cccnc4)c3)cc1)C(=O)O)C(=O)C2` [Example 1.73, (2S)-3-[3′-(3-Pyridin-3-yl-ureido)-biphenyl-4-yl]-2-[(S)-campher-10-yl-sulfonylamino]-propanoic acid], the IC50 stood at 2 nM.

Test system in a further data set: not given
Assay: not given
Conditions: not given
Consider `C=CCN/C(=C\[N+](=O)[O-])Nc1cccc(-c2ccc(C[C@H](NS(=O)(=O)CC34CC[C@@H](CC3=O)C4(C)C)C(=O)O)cc2)c1` [Example 12.5], for which the melting point is 150 °C (dec.).

For the compound `Cc1cc(C)c(S(=O)(=O)N[C@@H](Cc2ccc(-c3cccc(N/C(=N/C#N)NCc4ccccn4)c3)cc2)C(=O)O)c(C)c1` [Example 10.9], the melting point was 174 °C (dec.).

Consider `COc1ccc(-c2cccc(Nc3ncccc3N)c2)cc1S(=O)(=O)NC(CC(=O)O)c1ccccc1` (stereo not shown) [Example 20.4], for which the melting point was greater than 240 °C.

`Cc1cc(C)c(S(=O)(=O)NC(Cc2cccc(-c3cccc(NC(=O)NC4CC4)c3)c2)C(=O)O)c(C)c1` (stereo not shown) [Example 1.191] gave a melting point of 214 °C.

Regarding `CCCNC(=O)Nc1cccc(-c2cccc(S(=O)(=O)N[C@H](C)C(=O)O)c2)c1` [Example 4.81], the melting point turned out to be 126 °C.

The compound `COc1ccc(-c2cccc(NC(=O)NCCSC(F)(F)F)c2)cc1S(=O)(=O)NC(CC(=O)O)c1ccccc1` (stereo not shown) [Example 4.101] gave a melting point greater than 240 °C.

The compound `COc1ccc(-c2cccc(NC(=O)NCC(F)(F)C(F)(F)F)c2)cc1S(=O)(=O)NC(CC(=O)O)c1ccccc1` (stereo not shown) [Example 4.85] came in with a melting point of 147 °C.

Compound `Cc1cc(C)c(S(=O)(=O)N[C@@H](Cc2ccc(-c3cccc(NC(=O)NCc4ccc(C(F)(F)F)cc4)c3)cc2)C(=O)O)c(C)c1` [Example 1.212] showed a melting point of 154 °C.

As for `COc1ccc2nc(NC(=O)Nc3cccc(-c4ccc(C[C@H](NS(=O)(=O)c5c(C)cc(C)cc5C)C(=O)O)cc4)c3)sc2c1` [Example 1.200], the melting point was determined as 225 °C.

For `Cc1cc(C)c(S(=O)(=O)N[C@@H](Cc2ccc(-c3cccc(NC(=O)Nc4nc5ccc(C)cc5o4)c3)cc2)C(=O)O)c(C)c1` [Example 1.196], the melting point turned out to be 213 °C.

With `CC1(C)C2CC[C@@]1(CS(=O)(=O)N[C@@H](Cc1ccc(-c3cccc(Nc4ncccc4[N+](=O)[O-])c3)cc1)C(=O)O)C(=O)C2` [Example 20.3], the melting point turned out to be 207 °C.

Regarding `O=C(O)CC(NS(=O)(=O)c1cccc(-c2cccc(Nc3c(NCC(F)(F)F)c(=O)c3=O)c2)c1)c1cccnc1` (stereo not shown) [Example 13.11], the melting point was 219 °C (dec.).

`COc1ccc(-c2cccc(NC(=O)c3ncc[nH]3)c2)cc1S(=O)(=O)NC(CC(=O)O)c1ccccc1` (stereo not shown) [Example 19.5] displayed a melting point greater than 200 °C.

Compound `Cc1cc(C)c(S(=O)(=O)N[C@@H](Cc2ccc(-c3cccc(CNc4nc5ccccc5[nH]4)c3)cc2)C(=O)O)c(C)c1` [Example 18.4] came in with a melting point greater than 240 °C.

Consider `Cc1cc(C)c(S(=O)(=O)N[C@@H](Cc2ccc(-c3cccc(NC(=O)Nc4nc5ccccc5s4)c3)cc2)C(=O)O)c(C)c1` [Example 1.197], for which the melting point stood at 198 °C.

`N#C/N=C(/Nc1cccc(-c2cccc(S(=O)(=O)NC(CC(=O)O)c3ccccc3)c2)c1)NC1CC1` (stereo not shown) [Example 10.3.5, 3-[(3′-{[(cyclopropylamino)(cyanoimino)methyl]amino}[1,1′-biphenyl]-3-yl)sulfonylamino]-3-phenyl-propanoic acid] yielded a melting point of 120 °C.

A further data set deals with αvβ3 receptor.
Assay: not given
The conditions noted are these: WO 98/00395, second value; cited from earlier work.
For the compound `CC1(C)C2CCC1(CS(=O)(=O)NC(Cc1ccc(OCCCC(=O)NC(=N)N)cc1)C(=O)O)C(=O)C2` (stereo not shown) [(I)], the IC50 is 0.16 nM.
